This passage reports MIC results from DBAASP.

SMILES strings stand for the structures. Converted amounts (≈) assume the structure as drawn.

One may read the MIC as the least concentration at which growth counts as inhibited. The low end stands for inhibition by little substance, the high end for a need for much substance.

Common to all, as to assay: ≥ marks a high value that may be exact or a test limit, other limits are often not marked, values filed in µg/mL are converted to µM
The test system of assay [1] is Candida albicans.
Assay [2] has as its system Staphylococcus aureus.
The subject of assay [3] is Bacillus subtilis.
Assay [4] concerns Candida albicans ATCC 2002.
Assay [5] concerns Escherichia coli ATCC 25922.
Assay [6] deals with Staphylococcus aureus ATCC 2592.
Assay [7] relates to Acinetobacter baumannii.
The test system of assay [8] is Enterococcus faecalis ATCC 29212.
The subject of assay [9] is Pseudomonas aeruginosa ATCC 27853.
Assay [10] relates to Staphylococcus aureus ATCC 29213.

`CC[C@H](C)[C@H](NC(=O)[C@H](CCCN=C(N)N)NC(=O)[C@H](CC(C)C)NC(=O)CNC(=O)[C@H](CCCCN)NC(=O)CNC(=O)[C@@H]1CCCN1C(=O)[C@H](CC(C)C)NC(=O)[C@H](CC(N)=O)NC(=O)[C@@H]1CCCN1C(=O)[C@H](CO)NC(=O)[C@H](Cc1ccccc1)NC(=O)CN)C(=O)N[C@@H](CO)C(=O)O` [GFSPNLPGKGLRIS]: the figures for the minimal inhibitory concentration (MIC) in assay [1] and in [2] were 34.7 µM (≈ 50 µg/mL) and over 69.3 µM, respectively.
As for `CC[C@H](C)[C@H](NC(=O)[C@H](CCCCN)NC(=O)[C@H](CC(N)=O)NC(=O)[C@H](CC(C)C)NC(=O)[C@@H](NC(=O)[C@@H](NC(=O)[C@@H](NC(=O)[C@H](C)NC(=O)[C@H](C)NC(=O)[C@H](CC(N)=O)NC(=O)[C@H](CCCCN)NC(=O)[C@H](CC(C)C)NC(=O)CNC(=O)[C@H](CCC(=O)O)NC(=O)[C@H](CCCCN)NC(=O)[C@@H](NC(=O)[C@H](CO)NC(=O)[C@H](CC(=O)O)NC(=O)[C@H](Cc1c[nH]c2ccccc12)NC(=O)[C@H](Cc1ccccc1)NC(=O)CN)C(C)C)C(C)C)[C@@H](C)O)[C@@H](C)CC)C(=O)N[C@@H](CCCCN)C(=O)N[C@H]1CSSC[C@@H](C(=O)N2CCC[C@H]2C(=O)N2CCC[C@H]2C(=O)N[C@@H](C)C(=O)O)NC(=O)[C@H](CCC(=O)O)NC(=O)[C@H](CO)NC(=O)[C@H]([C@@H](C)CC)NC(=O)[C@H](CCCCN)NC1=O` [GFWDSVKEGLKNAAVTILNKIKCKISECPPA], the MIC in assay [3] turned out to be 29.8 µM (≈ 99.9 µg/mL); in [4] it was 3.72 µM (≈ 12.5 µg/mL); in [5], 14.9 µM (≈ 50 µg/mL); in [6], 14.9 µM (≈ 50 µg/mL).
Turning to `CC(C)C[C@H](NC(=O)[C@H](CC(C)C)NC(=O)[C@H](CCCNC(=N)N)NC(=O)[C@H](CCCCN)NC(=O)[C@H](CCCNC(=N)N)NC(=O)[C@H](CC(C)C)NC(=O)[C@H](CCCCN)NC(=O)[C@H](CCCNC(=N)N)NC(=O)[C@H](CC(C)C)NC(=O)[C@H](CC(C)C)NC(=O)[C@H](CC(C)C)NC(=O)[C@H](CCCNC(=N)N)NC(=O)[C@H](CCCCN)NC(=O)[C@H](CCCNC(=N)N)NC(=O)[C@H](CC(C)C)NC(=O)[C@H](CCCCN)NC(=O)[C@H](CCCNC(=N)N)NC(=O)[C@@H](N)CC(C)C)C(=O)O` [LRKLRKRLLLRKLRKRLL], the MIC is 13.5 µM (≈ 32 µg/mL) in [7]; over 13.5 µM in assay [8]; 5.06 µM (≈ 12 µg/mL) in assay [5]; 6.74 µM (≈ 16 µg/mL) in [9]; over 13.5 µM in assay [10].
`CC[C@H](C)[C@H](NC(=O)[C@H](CCC(N)=O)NC(=O)[C@H](CCCCN)NC(=O)[C@H](Cc1c[nH]c2ccccc12)NC(=O)[C@H](CC(C)C)NC(=O)[C@H](CCC(N)=O)NC(=O)CNC(=O)[C@H](CC(C)C)NC(=O)[C@H](CCCCN)NC(=O)[C@H](C)NC(=O)[C@H](CCC(=O)O)NC(=O)[C@H](CCCCN)NC(=O)[C@@H](NC(=O)[C@H](CCSC)NC(=O)[C@@H](NC(=O)[C@@H](NC(=O)[C@@H](NC(=O)[C@@H](N)CO)[C@@H](C)CC)[C@@H](C)CC)[C@@H](C)O)[C@@H](C)O)C(=O)N[C@@H](C)C(=O)N[C@H]1CSSC[C@@H](C(=O)O)NC(=O)[C@H]([C@@H](C)O)NC(=O)[C@H](CC(N)=O)NC(=O)[C@H](Cc2ccc(O)cc2)NC(=O)[C@H](CC(C)C)NC(=O)[C@H](CCCN=C(N)N)NC1=O` [SIITMTKEAKLGQLWKQIACRLYNTC]: the MIC is at least 39.8 µM in assay [3], 19.9 µM (≈ 60 µg/mL) in assay [4], 39.8 µM (≈ 120 µg/mL) in [5] and 4.98 µM (≈ 15 µg/mL) in assay [6].
